Data published in patent publication US20240252668A1, “ANTIBODY DRUG CONJUGATES AND METHODS FOR MAKING THEREOF” (Novartis AG, priority 2021, published 2024).
Where two headings read alike, the source gives them in different places. Starred links: 1 amine or outer side, 2 acyl side, 3 side chain; linkers in the order of their positions; H or OH if unused. Non-standard residues stand in square brackets, D forms with d. Residues, ends and D or L forms follow the SMILES beside them. *: point of attachment. Leu(3R-OH,Nα-propionyl) = CCC(=O)N[C@H](C(=O)*)[C@H](O)C(C)C; X1 = CC(C)[C@@H](O[*:3])[C@H](N[*:1])C(=O)[*:2]; NMeT = CN[C@H](C(=O)O)[C@@H](C)O; dPhLac = O=C(O)[C@H](O)Cc1ccccc1; X2 = CC(C)C=C(N[*:1])C(=O)[*:2]; NMeA = CN[C@@H](C)C(=O)O; NMeDha = C=C(NC)C(=O)O

Columns and labels:
[1] = system: 92.1 uveal melanoma cell line (heterozygous GNAQ Q209L); test: Cell proliferation assay (resazurin cell viability), 92.1 cell line; type: cell-based
Text: (§1) Cell Proliferation Assays with Chromodepsins (compounds (A1) and 2-15): Cell line descriptions: 92.1—uveal melanoma cell line, derived from primary tumor, harboring heterozygous GNAQ Q209L mutation. Purchased from Sigma Aldrich. MP41 (CRL-3297) -uveal melanoma cell line, derived from primary tumor, harboring heterozygous GNA11 Q209L mutation. Purchased from ATCC. A375—skin melanoma cell line, harboring homozygous BRAF V600E mutation. Origin: Cancer Cell Line Encyclopedia (CCLE). SK-MEL-30—skin melanoma cell line, harboring heterozygous NRAS Q61K mutation. Origin: CCLE.
(§2) Cells were cultured in 96-well plates in a total volume of 100 μL at 37° C., 5% CO2 and 95% relative humidity. All cell lines were cultured in RPMI Medium (RPMI 1640 w/o L-glutamine, Bioconcept ref. 1-41F01-I) except A375, DMEM medium (DMEM high glucose (4.5 g/L), Bioconcept, ref. 1-26F01-I), and supplemented with 10% FCS (Bioconcept, ref. 2-01F30-I). Two to three thousand cells were seeded in 96-well plates per well the night before they were treated with compounds (concentration range: from 260 nM to 0.036 nM with ⅓ dilution steps; for 7 the concentration range was increased from 10000 nM to 1.52 nM with ⅓ dilution steps). Cell viability was measured by addition of 10 ul of resazurin per well after 96 hours of treatment. Results were analyzed and plotted using GraphPad Prism 9.0.1.

[2] = system: MP41 uveal melanoma cell line (heterozygous GNA11 Q209L); test: Cell proliferation assay (resazurin cell viability), MP41 cell line; type: cell-based
Text: as §1, §2

[3] = system: A375 skin melanoma cell line (homozygous BRAF V600E); test: Cell proliferation assay (resazurin cell viability), A375 cell line; type: cell-based
Text: as §1, §2

[4] = system: SK-MEL-30 skin melanoma cell line (heterozygous NRAS Q61K); test: Cell proliferation assay (resazurin cell viability), SK-MEL-30 cell line; type: cell-based
Text: as §1, §2

[5] = system: MDCK-LE monolayers; test: Cell-based transwell assay with MDCK-low efflux monolayers (passive permeability); type: in vitro ADME; settings: MDCK-LE monolayers
Procedure: Cell-based transwell assays with MDCK-low efflux monolayers: Compounds (A1) and 2-15 were tested in MDCK cell sub-clones with low effluxt ransporter activity (MDCK-LE) in order to determine their passive permeability. The incubations were performed at a contract research organization as described previously.

[6] = EPSA determination by supercritical fluid chromatography; type: physicochemical; settings: modified EPSA method, SFC
Procedure: […] by supercritical fluid chromatography: Compounds (A1) and 2-15 were tested by supercritical fluid chromatography (SFC) to determine their ESAPSA values. Samples were analyzed using a Chirex 3014 column ([…], 3×100 mm column, 100 Å pore size; Phenomenex. The starting conditions were 5% methanol containing 20 mM ammonium formate and 95% scCO2. The gradient was increased linearly to 60% methanol containing 20 mM ammonium formate in 4.5 min.

[7] = Plasma incubation of compound (A1), human plasma, LC-MS/MS quantification; type: in vitro ADME; settings: formed in incubation of (A1) in human plasma, 37° C.
Procedure: Plasma incubations and sample preparation: Compound (A1) was spiked at 5.00 μg/mL in PBS and pooled mixed gender mouse (CD-1), cynomolgus monkey and human plasma. Samples were incubated on a Thermomixer (Eppendorf) at 37° C. while shaking at 650 rpm. Aliquots of 50 μL (n=3) were drawn from each incubation tube following 0, 0.5, 1, 2, 4, 8 and 24 h of incubation. 50 μL of sample was quenched with 200 μL of acetonitrile, containing both generic internal standards, glybenclamide and warfarin, at 62.5 ng/mL. Samples were briefly vortexed and centrifuged for 20 min at 4000 rpm and 4° C. 200 μL of the supernatant was transferred into a clean 800 μL 96-well sample collection plate.
Quantification by LC-MS/MS: LC-MS/MS analysis was conducted with a Shimadzu Nexera UPLC coupled to AB Sciex QTRAP 6500 using the SRM acquisition mode (3 μL injected). Samples were analyzed using a ACE 3° C.18-PFP (3 μM, 2.1×50 mm column) at a column temperature of 65° C. The starting conditions were 97% H20 containing 0.1% formic acid and 3% CH3CN containing 0.1% formic acid. Quantification of compound (A1) and 5 was performed by MS-MRM (electrospray in positive mode, ion spray voltage: 5000 V, source temperature: 500° C., curtain gas: 25 psig, nebulizer gas: 60 psig, turbo ion spray gas: 40 psig, mass range: low, resolution Q1/Q3: unit, collision gas: medium, dwell time: 12 msec). Separate calibration curves were established with calibration standards of compounds (A1) and 5 at concentrations of 10.0, 5.00, 2.50, 1.00, 0.500, 0.100, 0.050 and 0.010 μg/mL respectively. Peak integration and quantification was conducted with the AB Sciex Analyst software (v.1.7) using the Analyst Classic algorithm. […]

Compound: C=C(C(=O)N[C@@H](C)C(=O)N(C)[C@@H](C)C(=O)N[C@H](C(=O)N(C)[C@H](C(=O)O)[C@@H](C)OC)[C@H](OC(=O)[C@@H](NC(=O)CC)[C@H](O)C(C)C)C(C)C)N(C)C(=O)[C@@H](Cc1ccccc1)OC(=O)C(=CC(C)C)NC(C)=O [Compound 5] (Ac-[X2][dPhLac][NMeDha]A[NMeA][X1](Leu(3R-OH,Nα-propionyl))[NMeT](Me)-OH)
- GI50 ([1]; 92.1 (GNAQ Q209L), 96 hours of treatment, read-out: GI50 by cell line, 92.1): > 260 nM
- GI50 ([1]; 92.1 cell line, average of Rep. 1 and 2, read-out: GI50 92.1 Average): > 260 nM
- GI50 ([1]; 92.1 cell line, replicate 1, read-out: GI50 92.1 Rep. 1): > 260 nM
- GI50 ([1]; 92.1 cell line, replicate 2, read-out: GI50 92.1 Rep. 2): > 260 nM
- GI50 ([2]; MP41 (GNA11 Q209L), 96 hours of treatment, read-out: GI50 by cell line, MP41): > 260 nM
- GI50 ([2]; MP41 cell line, average of Rep. 1 and 2, read-out: GI50 MP41 Average): > 260 nM
- GI50 ([2]; MP41 cell line, replicate 1, read-out: GI50 MP41 Rep. 1): > 260 nM
- GI50 ([2]; MP41 cell line, replicate 2, read-out: GI50 MP41 Rep. 2): > 260 nM
- GI50 ([3]; A375 (GNAQ/11 wild type), 96 hours of treatment, read-out: GI50 by cell line, A375): > 260 nM
- GI50 ([3]; A375 cell line, average of Rep. 1 and 2, read-out: GI50 A375 Average): > 260 nM
- GI50 ([3]; A375 cell line, replicate 1, read-out: GI50 A375 Rep. 1): > 260 nM
- GI50 ([3]; A375 cell line, replicate 2, read-out: GI50 A375 Rep. 2): > 260 nM
- GI50 ([4]; SK-MEL-30 (GNAQ/11 wild type), 96 hours of treatment, read-out: GI50 by cell line, SK-MEL-30): > 260 nM
- GI50 ([4]; SK-MEL-30 cell line, average of Rep. 1 and 2, read-out: GI50 SK-MEL-30 Average): > 260 nM
- GI50 ([4]; SK-MEL-30 cell line, replicate 1, read-out: GI50 SK-MEL-30 Rep. 1): > 260 nM
- GI50 ([4]; SK-MEL-30 cell line, replicate 2, read-out: GI50 SK-MEL-30 Rep. 2): > 260 nM
- % Fraction absorbed [5]: 4.2%
- % Recovery [5]: 86%
- Papp A − B [5]: 0.27 ×10⁻⁶ cm/s
- EPSA [6]: 229 A^2
- Concentration of 5, Aliquot 1 ([7]; 0 h): BLQ
- Concentration of 5, Aliquot 2 ([7]; 0 h): BLQ
- Concentration of 5, Aliquot 3 ([7]; 0 h): BLQ
- Concentration of 5, Aliquot 1 ([7]; 0.5 h): 61.3 ng/mL
- Concentration of 5, Aliquot 2 ([7]; 0.5 h): 67.3 ng/mL
- Concentration of 5, Aliquot 3 ([7]; 0.5 h): 67.1 ng/mL
- Mean concentration of 5 ([7]; 0.5 h): 65.2 ng/mL
- Concentration of 5, Aliquot 1 ([7]; 1 h): 117 ng/mL
- Concentration of 5, Aliquot 2 ([7]; 1 h): 123 ng/mL
- Concentration of 5, Aliquot 3 ([7]; 1 h): 142 ng/mL
- Mean concentration of 5 ([7]; 1 h): 127 ng/mL
- Concentration of 5, Aliquot 1 ([7]; 2 h): 255 ng/mL
- Concentration of 5, Aliquot 2 ([7]; 2 h): 289 ng/mL
- Concentration of 5, Aliquot 3 ([7]; 2 h): 317 ng/mL
- Mean concentration of 5 ([7]; 2 h): 287 ng/mL
- Concentration of 5, Aliquot 1 ([7]; 4 h): 615 ng/mL
- Concentration of 5, Aliquot 2 ([7]; 4 h): 647 ng/mL
- Concentration of 5, Aliquot 3 ([7]; 4 h): 677 ng/mL
- Mean concentration of 5 ([7]; 4 h): 646 ng/mL
- Concentration of 5, Aliquot 1 ([7]; 8 h): 1370 ng/mL
- Concentration of 5, Aliquot 2 ([7]; 8 h): 1480 ng/mL
- Concentration of 5, Aliquot 3 ([7]; 8 h): 1570 ng/mL
- Mean concentration of 5 ([7]; 8 h): 1470 ng/mL
- Concentration of 5, Aliquot 1 ([7]; 24 h): 3140 ng/mL
- Concentration of 5, Aliquot 2 ([7]; 24 h): 2820 ng/mL
- Concentration of 5, Aliquot 3 ([7]; 24 h): 3140 ng/mL
- Mean concentration of 5 ([7]; 24 h): 3030 ng/mL
